Ends that are not written are not given here. Peptide text beside a SMILES is read from it.
Key:
LDLR [1] = target: T1, LDLR (Homo sapiens, UniProt P01130); assay: LDLR binding (SPR), high surfactant preparation; settings: high surfactant preparation (HBS-P+), 1:1 binding model; read-out: binding KD to LDLR
Summary of the method: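 Surface plasmon resonance with recombinant LDLR amine-coupled to a CM5 chip at 1000 RU. Peptides, 5 μM top concentration then 1:3 dilutions (5 levels) in HBS-P+ with 1 mM CaCl2, injected 120 seconds at 30 μL/sec; multi-cycle kinetics fitted to a 1:1 binding model.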
Target sequence in this assay (P01130 22-860): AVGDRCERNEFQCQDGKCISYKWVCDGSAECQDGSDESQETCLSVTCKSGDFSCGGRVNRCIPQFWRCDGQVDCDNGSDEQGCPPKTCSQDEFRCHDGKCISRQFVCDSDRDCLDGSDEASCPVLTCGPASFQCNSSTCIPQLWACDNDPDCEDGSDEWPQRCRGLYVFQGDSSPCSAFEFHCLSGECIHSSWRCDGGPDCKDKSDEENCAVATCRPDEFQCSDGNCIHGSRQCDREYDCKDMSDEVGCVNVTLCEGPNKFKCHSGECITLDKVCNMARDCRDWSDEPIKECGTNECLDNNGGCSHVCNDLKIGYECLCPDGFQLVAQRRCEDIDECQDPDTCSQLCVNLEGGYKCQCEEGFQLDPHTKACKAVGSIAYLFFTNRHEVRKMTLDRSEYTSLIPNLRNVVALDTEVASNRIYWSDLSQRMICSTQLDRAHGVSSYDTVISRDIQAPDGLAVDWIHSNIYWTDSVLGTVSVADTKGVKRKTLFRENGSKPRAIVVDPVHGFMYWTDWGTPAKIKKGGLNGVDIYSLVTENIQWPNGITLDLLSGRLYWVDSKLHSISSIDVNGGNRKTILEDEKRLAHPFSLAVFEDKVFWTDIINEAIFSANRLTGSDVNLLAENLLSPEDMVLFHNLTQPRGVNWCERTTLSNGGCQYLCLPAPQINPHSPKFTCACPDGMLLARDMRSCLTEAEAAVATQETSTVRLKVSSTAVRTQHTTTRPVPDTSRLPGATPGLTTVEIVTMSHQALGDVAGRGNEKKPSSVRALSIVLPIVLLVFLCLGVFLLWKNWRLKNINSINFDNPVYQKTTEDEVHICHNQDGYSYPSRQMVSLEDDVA

LDLR [2] = target: T1, LDLR; assay: KD, Peptide (μM)
Target sequence in this assay (P01130 22-860 limits assumed): as the sequence (P01130 22-860) above
Description: Title: Buffer: HBS + 0.005% P20
Head of the field: KD, Peptide (μM)
First copying reader's note: KD values are for binding to LDLR by SPR, peptide alone versus peptide:DMPC lipid complex; the table continues on FIG. 24B.

LDLR [3] = target: T1, LDLR; assay: KD (µM)
Description: First copying reader's note: Left of three side-by-side panels of FIG. 23; the KD cells hold value ± error together. Where the first naming reader finds the target: description_of_the_figure: FIG. 23 is a table showing the binding kinetics results of LDLR binding assays (SPR)
Target sequence in this assay (P01130 22-860 limits assumed): as the sequence (P01130 22-860) above

| Compound | Kd (LDLR [1]) [µM] | Kd (LDLR [2]) [µM] | Kd (LDLR [3]) [µM] |
| --- | --- | --- | --- |
| CC(C)C[C@H](NC(=O)[C@H](CCCNC(=N)N)NC(=O)[C@H](CC(=O)O)NC(=O)[C@H](CCC(N)=O)NC(=O)[C@H](CC(C)C)NC(=O)[C@H](CCCCN)NC(=O)[C@H](CC(=O)O)NC(=O)CNC(=O)[C@H](CC(=O)O)NC(=O)[C@H](CCCNC(=N)N)NC(=O)[C@H](CC(C)C)NC(=O)[C@H](CC(C)C)NC(=O)[C@H](CCCNC(=N)N)NC(=O)[C@H](CCCCN)NC(=O)[C@H](CCCNC(=N)N)NC(=O)[C@H](CC(C)C)NC(=O)[C@H](CCCCN)NC(=O)[C@H](CCCNC(=N)N)NC(=O)[C@H](CC(C)C)NC(=O)[C@H](Cc1c[nH]cn1)NC(=O)[C@H](CO)NC(=O)[C@H](C)NC(=O)[C@@H](N)CC(C)C)C(=O)N[C@@H](C)C(=O)N[C@@H](CCC(=O)O)C(=O)N[C@@H](Cc1ccc(O)cc1)C(=O)N[C@@H](CCC(N)=O)C(=O)N[C@@H](C)C(=O)N[C@@H](CCCNC(=N)N)C(=O)N[C@@H](C)C(=O)N[C@@H](CCCCN)C(=O)N[C@@H](CCC(=O)O)C(=O)N[C@@H](C)C(=O)N[C@@H](Cc1ccccc1)C(=O)N[C@@H](CC(=O)O)C(=O)N[C@@H](CCCNC(=N)N)C(=O)O [T-048] | < 10 | 11.4 ± 5.29 | – |
| CC(C)C[C@H](NC(=O)[C@H](CCCNC(=N)N)NC(=O)[C@H](CC(=O)O)NC(=O)[C@H](CCC(N)=O)NC(=O)[C@H](CC(C)C)NC(=O)[C@H](CCCCN)NC(=O)[C@H](CC(=O)O)NC(=O)CNC(=O)[C@H](CC(=O)O)NC(=O)[C@H](CCCNC(=N)N)NC(=O)[C@H](CC(C)C)NC(=O)[C@H](CC(C)C)NC(=O)[C@H](CCCNC(=N)N)NC(=O)[C@H](CCCCN)NC(=O)[C@H](CCCNC(=N)N)NC(=O)[C@H](CC(C)C)NC(=O)[C@H](CCCCN)NC(=O)[C@H](CCCNC(=N)N)NC(=O)[C@H](CC(C)C)NC(=O)[C@@H](N)Cc1c[nH]cn1)C(=O)N[C@@H](C)C(=O)N[C@H](C(=O)N[C@@H](Cc1ccc(O)cc1)C(=O)N[C@@H](CCC(N)=O)C(=O)N[C@@H](C)C(=O)N[C@@H](CCCNC(=N)N)C(=O)N[C@@H](C)C(=O)N[C@@H](CCCCN)C(=O)N[C@@H](CCC(=O)O)C(=O)N[C@@H](C)C(=O)N[C@@H](Cc1ccccc1)C(=O)N[C@@H](CC(=O)O)C(=O)N[C@@H](CCCNC(=N)N)C(=O)O)C(C)C [T-053] (H-HLRKLRKRLLRDGDKLQDRLAVYQARAKEAFDR-OH; N-terminus and C-terminus assumed) | – | 43000 ± 34000 | 121 ± 14.9 |
| CC(C)C[C@H](NC(=O)[C@H](CCCNC(=N)N)NC(=O)[C@H](CC(=O)O)NC(=O)[C@H](CCC(N)=O)NC(=O)[C@H](CC(C)C)NC(=O)[C@H](CCCCN)NC(=O)[C@H](CC(=O)O)NC(=O)CNC(=O)[C@H](CC(=O)O)NC(=O)[C@H](CCCNC(=N)N)NC(=O)[C@H](C)NC(=O)[C@H](CC(C)C)NC(=O)[C@H](CCCNC(=N)N)NC(=O)[C@H](CCCCN)NC(=O)[C@H](CCCNC(=N)N)NC(=O)[C@H](CC(C)C)NC(=O)[C@H](CCCCN)NC(=O)[C@H](CCCNC(=N)N)NC(=O)[C@H](CC(C)C)NC(=O)[C@H](Cc1c[nH]cn1)NC(=O)[C@H](CCCNC(=N)N)NC(=O)[C@H](C)NC(=O)[C@@H](N)CC(C)C)C(=O)N[C@@H](C)C(=O)N[C@@H](CCC(=O)O)C(=O)N[C@@H](Cc1ccc(O)cc1)C(=O)N[C@@H](CCC(N)=O)C(=O)N[C@@H](C)C(=O)N[C@@H](CCCNC(=N)N)C(=O)N[C@@H](C)C(=O)N[C@@H](CCCCN)C(=O)N[C@@H](CCC(=O)O)C(=O)N[C@@H](C)C(=O)N[C@@H](Cc1ccccc1)C(=O)N[C@@H](CC(=O)O)C(=O)N[C@@H](CCCNC(=N)N)C(=O)O [T-049] (H-LARHLRKLRKRLARDGDKLQDRLAEYQARAKEAFDR-OH) | < 10 | – | 3.26 ± 0.2 |
| CC(C)C[C@H](NC(=O)[C@H](CCCNC(=N)N)NC(=O)[C@H](CCCCN)NC(=O)[C@H](CCC(N)=O)NC(=O)[C@H](CC(C)C)NC(=O)[C@H](CC(=O)O)NC(=O)[C@H](CC(=O)O)NC(=O)[C@H](C)NC(=O)[C@H](CC(=O)O)NC(=O)[C@H](CCCNC(=N)N)NC(=O)[C@H](C)NC(=O)[C@H](CC(C)C)NC(=O)[C@H](CCCNC(=N)N)NC(=O)[C@H](CCCCN)NC(=O)[C@H](CCCNC(=N)N)NC(=O)[C@H](CC(C)C)NC(=O)[C@H](CCCCN)NC(=O)[C@H](CCCNC(=N)N)NC(=O)[C@H](CC(C)C)NC(=O)[C@H](Cc1c[nH]cn1)NC(=O)[C@H](CCCNC(=N)N)NC(=O)[C@H](C)NC(=O)[C@@H](N)CC(C)C)C(=O)N[C@@H](C)C(=O)N[C@H](C(=O)N[C@@H](Cc1ccc(O)cc1)C(=O)N[C@@H](CCC(N)=O)C(=O)N[C@@H](C)C(=O)NCC(=O)N[C@@H](C)C(=O)N[C@@H](CCCNC(=N)N)C(=O)N[C@@H](CCC(=O)O)C(=O)NCC(=O)N[C@@H](C)C(=O)N[C@@H](CCC(=O)O)C(=O)N[C@@H](CCCNC(=N)N)C(=O)O)C(C)C [T-047] (H-LARHLRKLRKRLARDADDLQKRLAVYQAGAREGAER-OH) | < 10 | – | 3.26 ± 0.23 |
| CC(C)C[C@H](NC(=O)[C@H](CCCNC(=N)N)NC(=O)[C@H](CCCCN)NC(=O)[C@H](CCC(N)=O)NC(=O)[C@H](CC(C)C)NC(=O)[C@H](CC(=O)O)NC(=O)[C@H](CC(=O)O)NC(=O)[C@H](C)NC(=O)[C@H](CC(=O)O)NC(=O)[C@H](CCCNC(=N)N)NC(=O)[C@H](CC(C)C)NC(=O)[C@H](CC(C)C)NC(=O)[C@H](CCCNC(=N)N)NC(=O)[C@H](CCCCN)NC(=O)[C@H](CCCNC(=N)N)NC(=O)[C@H](CC(C)C)NC(=O)[C@H](CCCCN)NC(=O)[C@H](CCCNC(=N)N)NC(=O)[C@H](CC(C)C)NC(=O)[C@@H](N)Cc1c[nH]cn1)C(=O)N[C@@H](C)C(=O)N[C@H](C(=O)N[C@@H](Cc1ccc(O)cc1)C(=O)N[C@@H](CCC(N)=O)C(=O)N[C@@H](C)C(=O)NCC(=O)N[C@@H](C)C(=O)N[C@@H](CCCNC(=N)N)C(=O)N[C@@H](CCC(=O)O)C(=O)NCC(=O)N[C@@H](C)C(=O)N[C@@H](CCC(=O)O)C(=O)N[C@@H](CCCNC(=N)N)C(=O)O)C(C)C [T-043] (H-HLRKLRKRLLRDADDLQKRLAVYQAGAREGAER-OH; N-terminus and C-terminus assumed) | – | 840 ± 1150 | 48.6 |
| CC(C)C[C@H](NC(=O)[C@H](CCCNC(=N)N)NC(=O)[C@H](CC(=O)O)NC(=O)[C@H](CCC(N)=O)NC(=O)[C@H](CC(C)C)NC(=O)[C@H](CCCCN)NC(=O)[C@H](CC(=O)O)NC(=O)[C@H](C)NC(=O)[C@H](CC(=O)O)NC(=O)[C@H](CCCNC(=N)N)NC(=O)[C@H](CC(C)C)NC(=O)[C@H](CC(C)C)NC(=O)[C@H](CCCNC(=N)N)NC(=O)[C@H](CCCCN)NC(=O)[C@H](CCCNC(=N)N)NC(=O)[C@H](CC(C)C)NC(=O)[C@H](CCCCN)NC(=O)[C@H](CCCNC(=N)N)NC(=O)[C@H](CC(C)C)NC(=O)[C@@H](N)Cc1c[nH]cn1)C(=O)N[C@@H](C)C(=O)N[C@@H](CCC(=O)O)C(=O)N[C@@H](Cc1ccc(O)cc1)C(=O)N[C@@H](CCC(N)=O)C(=O)N[C@@H](C)C(=O)N[C@@H](CCCNC(=N)N)C(=O)N[C@@H](C)C(=O)N[C@@H](CCCCN)C(=O)N[C@@H](CCC(=O)O)C(=O)N[C@@H](C)C(=O)N[C@@H](Cc1ccccc1)C(=O)N[C@@H](CC(=O)O)C(=O)N[C@@H](CCCNC(=N)N)C(=O)O [T-050] (H-HLRKLRKRLLRDADKLQDRLAEYQARAKEAFDR-OH; N-terminus and C-terminus assumed) | – | – | 528.5 ± 0.71 |
| LVQYRGEVQAMLGQSTEELRVRLASHLRKLRKRLLRDADDLQ [T-071] | – | 18.5 ± 2.69 | – |
| CC(C)C[C@H](NC(=O)[C@H](CCCNC(=N)N)NC(=O)[C@H](CCCCN)NC(=O)[C@H](CCC(N)=O)NC(=O)[C@H](CC(C)C)NC(=O)[C@H](CC(=O)O)NC(=O)[C@H](CC(=O)O)NC(=O)[C@H](C)NC(=O)[C@H](CC(=O)O)NC(=O)[C@H](CCCNC(=N)N)NC(=O)[C@H](CC(C)C)NC(=O)[C@H](CC(C)C)NC(=O)[C@H](CCCNC(=N)N)NC(=O)[C@H](CCCCN)NC(=O)[C@H](CCCNC(=N)N)NC(=O)[C@H](CC(C)C)NC(=O)[C@H](CCCCN)NC(=O)[C@H](CCCNC(=N)N)NC(=O)[C@H](CC(C)C)NC(=O)[C@@H](N)Cc1c[nH]cn1)C(=O)N[C@@H](C)C(=O)N[C@H](C(=O)N[C@@H](Cc1ccc(O)cc1)C(=O)N[C@@H](CCC(N)=O)C(=O)N[C@@H](C)C(=O)O)C(C)C [T-045] (H-HLRKLRKRLLRDADDLQKRLAVYQA-OH; N-terminus and C-terminus assumed) | – | 11800 ± 1250 | 71.2 ± 31.8 |
